Reference: US20230115176A1 (Ra Pharmaceuticals, Inc., priority 2019, published 2023)
Where two headings read alike, the source gives them in different places.

Tests used:
purified human C5 = purified human C5 (Homo sapiens, UniProt P01031); test: Red blood cell (RBC) hemolysis assay, optical, absorbance 412 nm (Example 10, Table 19); type: cell-based; conditions: antibody-sensitized sheep erythrocytes, […] human C5 depleted sera
Human C5 = molecular target: T1, Human C5 (Homo sapiens, UniProt P01031); test: Surface plasmon resonance (SPR), immobilized human C5 (Example 9, Table 18); type: binding
T1 construct: purchased Complement Technology
T1 sequence (P01031 19-1676): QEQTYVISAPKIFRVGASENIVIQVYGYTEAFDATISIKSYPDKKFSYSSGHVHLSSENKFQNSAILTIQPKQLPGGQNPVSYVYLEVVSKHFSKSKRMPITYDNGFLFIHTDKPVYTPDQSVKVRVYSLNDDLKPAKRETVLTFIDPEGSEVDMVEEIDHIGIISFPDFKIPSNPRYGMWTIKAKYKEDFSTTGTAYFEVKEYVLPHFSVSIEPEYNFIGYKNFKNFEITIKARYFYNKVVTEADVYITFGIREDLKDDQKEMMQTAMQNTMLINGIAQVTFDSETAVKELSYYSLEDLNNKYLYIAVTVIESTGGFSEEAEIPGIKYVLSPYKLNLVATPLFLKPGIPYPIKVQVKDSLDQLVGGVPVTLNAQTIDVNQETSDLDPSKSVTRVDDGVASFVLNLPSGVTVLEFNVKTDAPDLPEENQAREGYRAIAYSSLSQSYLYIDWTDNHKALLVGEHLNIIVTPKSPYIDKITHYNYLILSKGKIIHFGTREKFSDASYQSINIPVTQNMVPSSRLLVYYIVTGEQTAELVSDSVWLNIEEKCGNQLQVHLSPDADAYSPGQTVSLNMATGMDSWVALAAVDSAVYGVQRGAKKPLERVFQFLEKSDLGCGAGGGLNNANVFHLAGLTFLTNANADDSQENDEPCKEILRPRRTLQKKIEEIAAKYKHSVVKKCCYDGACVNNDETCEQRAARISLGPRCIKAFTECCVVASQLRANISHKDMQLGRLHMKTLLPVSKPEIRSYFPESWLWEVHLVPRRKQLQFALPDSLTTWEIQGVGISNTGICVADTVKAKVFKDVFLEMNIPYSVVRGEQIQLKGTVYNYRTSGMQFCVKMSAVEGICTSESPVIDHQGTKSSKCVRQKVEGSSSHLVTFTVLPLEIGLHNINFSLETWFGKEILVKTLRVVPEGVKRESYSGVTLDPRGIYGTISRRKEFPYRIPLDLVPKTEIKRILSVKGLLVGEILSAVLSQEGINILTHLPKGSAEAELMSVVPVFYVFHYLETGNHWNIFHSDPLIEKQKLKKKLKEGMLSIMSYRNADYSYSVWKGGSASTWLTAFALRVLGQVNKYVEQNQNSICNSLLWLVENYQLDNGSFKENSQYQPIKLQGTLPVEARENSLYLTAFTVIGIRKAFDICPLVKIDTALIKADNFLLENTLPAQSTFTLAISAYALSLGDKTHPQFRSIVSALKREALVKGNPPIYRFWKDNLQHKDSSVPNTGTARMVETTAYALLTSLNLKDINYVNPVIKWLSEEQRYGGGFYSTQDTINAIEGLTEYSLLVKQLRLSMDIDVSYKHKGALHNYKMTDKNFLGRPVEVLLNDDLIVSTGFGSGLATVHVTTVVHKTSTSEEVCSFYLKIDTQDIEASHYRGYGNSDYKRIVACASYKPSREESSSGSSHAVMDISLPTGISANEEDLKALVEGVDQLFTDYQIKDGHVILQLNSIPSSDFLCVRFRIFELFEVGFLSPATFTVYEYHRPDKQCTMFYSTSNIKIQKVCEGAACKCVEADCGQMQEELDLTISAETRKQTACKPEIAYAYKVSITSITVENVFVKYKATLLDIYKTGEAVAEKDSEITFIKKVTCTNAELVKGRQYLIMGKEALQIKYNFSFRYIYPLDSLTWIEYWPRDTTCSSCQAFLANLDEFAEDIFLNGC
Description: Morrison and Boyd in “Organic Chemistry”, 6th edition, Prentice Hall (1992)] and validated for proper structure by mass spectrometry.

[1] = 0.5 nM purified human C5, absorbance 412 nm, read-out: RBC Hemolysis IC50
[2] = immobilized human C5, equilibrium dissociation constant, read-out: SPR C5 EQ KD

Chain of purified human C5 (P01031 19-1676): as above

Kd (Human C5; [2]) | Kd (Human C5; SPR, human C5 immobilized, read-out: equilibrium dissociation constant for interaction with C5) | Compound | IC50 (purified human C5; [1]) | IC50 (purified human C5; 0.5 nM human C5, read-out: IC50)
190 nM | – | COc1ccc(NC(=O)N2CCc3ccc(O)cc3C2)cc1OCCCC(C)C [Compound C5INH-0385] | 1280 nM | –
320 nM | – | COc1ccc(C2CCCN2C(=O)Nc2ccc(OC)c(OCCCC(C)C)c2)cc1 (stereo not drawn) [Compound C5INH-0387] | 577 nM | –
970 nM | – | COc1cccc(C2CCCN2C(=O)Nc2ccc(OC)c(OCCCC(C)C)c2)c1 (stereo not drawn) [Compound C5INH-0388] | 970 nM | –
420 nM | – | COc1ccc(NC(=O)NCc2ccnc(NCCN(C)C)c2)cc1OCCCC(C)C [Compound C5INH-0389] | 1310 nM | –
257 nM | – | COCCNc1cc(CNC(=O)Nc2ccc(OC)c(OCCCC(C)C)c2)ccn1 [Compound C5INH-0390] | 698 nM | –
9 nM | < 20 nM | COc1ccc(NC(=O)N[C@@H](CO)c2ccccc2O)cc1OCCCC(C)C [Compound C5INH-0395] | 13.6 nM | < 20 nM
1400 nM | – | COc1ccc(NC(=O)N2CCCC2c2ccc(N(C)C)cc2)cc1OCCCC(C)C (stereo not drawn) [Compound C5INH-0396] | 2330 nM | –
2060 nM | – | COC(=O)c1cc(OC)c(OCCCC(C)C)cc1NC(=O)N[C@@H](CO)c1ccccc1 [Compound C5INH-0397] | 1380 nM | –
89 nM | – | COC(=O)CCn1ccc2c(CNC(=O)Nc3ccc(OC)c(OCCCC(C)C)c3)ccnc21 [Compound C5INH-0398] | 329 nM | –
48 nM | – | COc1cnccc1CNC(=O)Nc1ccc(OC)c(OCCCC(C)C)c1 [Compound C5INH-0401] | 136 nM | –
261 nM | – | COc1ccc(NC(=O)NCc2ccncc2OCCCN(C)C)cc1OCCCC(C)C [Compound C5INH-0402] | 1340 nM | –
220 nM | – | COc1ccc(NC(=O)NCc2ccnc(N3CCCC(O)C3)c2)cc1OCCCC(C)C (stereo not drawn) [Compound C5INH-0403] | 2990 nM | –
760 nM | – | COc1ccc(NC(=O)N[C@H](CO)c2ccccc2)cc1C(F)C(F)CCC(C)C (stereo partly drawn) [Compound C5INH-0406] | 683 nM | –
110 nM | – | COc1ccc(NC(=O)NCc2ccnc3c2ccn3CCNS(C)(=O)=O)cc1OCCCC(C)C [Compound C5INH-0409] | 477 nM | –
840 nM | – | CCS(=O)(=O)NCCn1ccc2c(CNC(=O)Nc3ccc(OC)c(OCCCC(C)C)c3)ccnc21 [Compound C5INH-0410] | 568 nM | –
500 nM | – | COc1ccc(NC(=O)NCc2ccc3c(ccn3CCN(C)C)c2)cc1OCCCC(C)C [Compound C5INH-0414] | 781 nM | –
693 nM | – | COc1ccc(NC(=O)NCc2ncccc2OC)cc1OCCCC(C)C [Compound C5INH-0417] | 1130 nM | –
800 nM | – | COc1ccc(NC(=O)NCc2ccc(N3CCN(C)CC3)cc2)cc1OCCCC(C)C [Compound C5INH-0420] | 403 nM | –
1660 nM | – | COc1ccc(NC(=O)NCc2ccc(CN3CCOCC3)cc2)cc1OCCCC(C)C [Compound C5INH-0421] | 4590 nM | –
1340 nM | – | COc1cc(CC(N)=O)c(NC(=O)N[C@@H](CO)c2ccccc2)cc1OCCCC(C)C [Compound C5INH-0422] | 1370 nM | –
530 nM | – | COc1ccc(NC(=O)NCc2ccc(N)nc2)cc1OCCCC(C)C [Compound C5INH-0428] | 3060 nM | –
1160 nM | – | CC(C)CCCOc1cc(NC(=O)N[C@@H](CO)c2ccccc2)ccc1N [Compound C5INH-0431] | 3790 nM | –
530 nM | – | COc1ccc(NC(=O)N[C@@H](CO)c2ccccc2)cc1C(F)CCCC(C)C (stereo partly drawn) [Compound C5INH-0432] | 417 nM | –
510 nM | – | COc1ccc(NC(=O)NCc2ccnc3c2ccn3C(C)=O)cc1OCCCC(C)C [Compound C5INH-0436] | 1700 nM | –
37 nM | – | COc1ccc(NC(=O)NCc2cccc3c2ccn3CCN2CCOCC2)cc1OCCCC(C)C [Compound C5INH-0437] | 81.5 nM | –
2780 nM | – | COc1ccc(NC(=O)N(CCN2CCOCC2)Cc2cccc3c2ccn3CCN2CCOCC2)cc1OCCCC(C)C [Compound C5INH-0438] | 3000 nM | –
